Structures can show the parent of a compound that is named as a salt. Where two headings read alike, the source gives them in different places. Blank lines part the entries; values can stand above or below the molecule they belong to.
Tests used:
L858R/T790M/C797S EGFR = L858R/T790M/C797S EGFR (Homo sapiens, UniProt P00533, C797S/L858R/T790M); assay: EGFR inhibitory activity, ADP-Glo kinase assay; assay type: biochemical
Description: (§2) Firstly, 8 µL of buffer (40 mM Tris-HCl pH 7.5, 20 mM MgCl2, and 0.1 mg/mL bovine serum albumin) were added to a 384-well plate (Promega, solid white). […] Thirdly, 5 µL of the ADP-Glo reagent was added and incubated for 40 min. Finally, 10 µL of kinase detection reagent was added and incubated at room temperature for 30 min and was detected by measuring the luminescence using a microplate reader (Infinite M200 microplate reader, Tecan, Männedorf, Switzerland).

L858R/T790M EGFR = L858R/T790M EGFR (Homo sapiens, UniProt P00533, L858R/T790M); assay: EGFR inhibitory activity, ADP-Glo kinase assay; assay type: biochemical; conditions: for IC50: ADP-Glo
Description: as §2

H1975 = assay: MTT cell viability assay; assay type: cell-based; conditions: Homo sapiens, read-out: IC50 (μM) H1975
Description: (§1) The cytotoxicity activities of potent PD derivatives obtained from the SIE method against A549 and H1975, as well as Vero (which are adherent cells), were assessed using MTT (3-(4,5-dimethyl-2-thiazolyl)-2,5-diphenyl-2H-tetrazolium bromide) assays. The A549 and Vero cells were grown in complete DMEM medium whereas H1975 cells were grown in complete RPMI medium supplemented with 10% (v/v) FBS, 100 U/mL penicillin and 100 µg/mL streptomycin. All cells were routinely cultured at 37 °C in a 5% (v/v) CO2, 95% (v/v) air humidified incubator. A549 (5 × 10^3 cells per well), H1975 (5 × 10^3 cells per well), and Vero (2 × 10^3 cells per well) cells were seeded into 96-well plates and incubated overnight. After cell attachment, cells were replenished using fresh medium with 0.1% FBS containing various concentrations of potent PD derivatives and known drugs and then incubated at 37 °C for 72 h. After that, fresh medium containing MTT solution (5 mg/mL) was added and incubated at 37 °C. After 3 h, the formed formazan crystal was dissolved with 100 μL of dimethyl sulfoxide (DMSO). Finally, the absorbance of formazan solution was measured at a wavelength 570 nm using a microplate reader (Infinite M200 microplate reader, Tecan, Männedorf, Switzerland). The independent treatments were repeated in triplicate. The IC50 determination of compounds was achieved using GraphPad Prism version 9.0.

A549 = assay: MTT cell viability assay; assay type: cell-based; conditions: Homo sapiens, read-out: IC50 (μM) A549
Description: as §1

wild-type EGFR = wild-type EGFR (Homo sapiens, UniProt P00533); assay: EGFR inhibitory activity, ADP-Glo kinase assay; assay type: biochemical; conditions: for IC50: ADP-Glo; for EGFR inhibitory screening: single 1 µM concentration
Description: as §2

Vero = assay: MTT cell viability assay, normal cell line; assay type: cell-based, monkey; conditions: 72 h, read-out: IC50 (μM) Vero
Description: as §1

[1] = Primates, Vero, Vero normal cells, MTT

Structure (SMILES): Cc1ncc(CN2CCN(C=O)CC2)c2cc(C(=O)c3ccc(Br)cc3)oc12.Cl
- melting point: 233 to 239 °C

Structure (SMILES): CN(C)C/C=C/C(=O)Nc1cc2c(Nc3ccc(F)c(Cl)c3)ncnc2cc1O[C@H]1CCOC1 [Afatinib]
- IC50 (H1975; NCI-H1975, 72 h): 27.3 ± 1.87 µM
- IC50 (A549; A549, 72 h): 34.7 ± 0.67 µM
- IC50 (Vero; Primates, Vero): > 50 µM

Structure (SMILES): C=CC(=O)Nc1cc(Nc2nccc(-c3cn(C)c4ccccc34)n2)c(OC)cc1N(C)CCN(C)C [Osimertinib]
- IC50 (H1975; NCI-H1975, 72 h): 18.3 ± 2 µM
- IC50 (A549; A549, 72 h): 25.3 ± 1.21 µM
- IC50 (Vero; Primates, Vero): > 50 µM

Structure (SMILES): C#Cc1cccc(Nc2ncnc3cc(OCCOC)c(OCCOC)cc23)c1 [Erlotinib]
- IC50 (H1975; NCI-H1975, 72 h): 41.8 ± 2.19 µM
- IC50 (A549; A549, 72 h): 19.4 ± 0.79 µM
- IC50 (Vero; Primates, Vero): > 30 µM

Structure (SMILES): Cc1ncc(Cn2cnc(Cl)c2Cl)c2cc(C(=O)c3ccc(Br)cc3)oc12
- melting point: 183 to 185 °C

Structure (SMILES): Cc1ncc(Cn2ccnc2)c2cc(C(=O)c3ccc(Br)cc3)oc12.Cl
- melting point: 278 to 280 °C

More lines, main results first:

- IC50 (L858R/T790M/C797S EGFR): 21.9 ± 1.79 nM
- IC50 (nM) L858R/T790M/C797S (L858R/T790M/C797S EGFR): double-digit nanomolar range
- IC50 (L858R/T790M EGFR): 10.5 ± 0.71 nM
- EGFR inhibitory screening (L858R/T790M EGFR; single 1 µM concentration): active
- IC50 (H1975; NCI-H1975, H1975, MTT, 72 h): 33.9 ± 0.86 µM
- IC50 (A549; A549, MTT, 72 h): 18.1 ± 1.57 µM
- IC50 (wild-type EGFR): 11.6 ± 1.3 nM
- EGFR inhibitory screening (wild-type EGFR): active
Structure (SMILES): Cc1ncc(CN2CCN(Cc3cccnc3)CC2)c2cc(C(=O)c3ccc4c(c3)OCCO4)oc12 [PD13, (2,3-Dihydrobenzo[d][1,4]dioxin-6-yl){7-methyl-4-[(4-(pyridin-3-ylmethyl)piperazin-1-yl)methyl]furo[2,3-c]pyridin-2-yl}methanone dihydrochloride]
- IC50 (Vero; [1]): > 100 µM

- melting point: 147 to 148 °C
Structure (SMILES): COc1ccc(C(=O)c2cc3c(CO)cnc(C)c3o2)cc1 [PD1, [4-Hydroxymethyl-7-methylfuro[2,3-c]pyridin-2-yl](4-methoxyphenyl)methanone]

- melting point: 224 to 227 °C
Structure (SMILES): Cc1ncc(CN2CCN(Cc3cccnc3)CC2)c2cc(C(=O)c3ccc4c(c3)OCCO4)oc12 (as salt: hydrochloride) [PD13, (2,3-Dihydrobenzo[d][1,4]dioxin-6-yl){7-methyl-4-[(4-(pyridin-3-ylmethyl)piperazin-1-yl)methyl]furo[2,3-c]pyridin-2-yl}methanone dihydrochloride]

- IC50 (L858R/T790M/C797S EGFR): 104 ± 3.62 nM
- melting point: 243 to 247 °C
- IC50 (L858R/T790M EGFR): 91 ± 2.01 nM
- IC50 (H1975; NCI-H1975, H1975, MTT, 72 h): 27.3 ± 1.02 µM
- IC50 (A549; A549, MTT, 72 h): 19.7 ± 0.59 µM
- IC50 (wild-type EGFR): 4.78 ± 0.73 nM
- EGFR inhibitory activity compared to erlotinib (wild-type EGFR; ratio of IC50 values): > 2 fold
- EGFR inhibitory screening (wild-type EGFR): only against wild-type EGFR
Structure (SMILES): Cc1ncc(CN2CCN(Cc3cccnc3)CC2)c2cc(C(=O)c3ccc(Br)cc3)oc12.Cl.Cl [PD4, (4-Bromophenyl){7-methyl-4-[(4-(pyridin-3-ylmethyl)piperazin-1-yl]methyl}furo[2,3-c]pyridin-2-yl)methanone dihydrochloride]
- IC50 (Vero; [1]): < 100 µM
- IC50 (Vero; Vero normal cells, MTT): > 50 µM

- melting point: 224 to 225 °C
Structure (SMILES): Cc1ncc(CN2CCN(Cc3ccccn3)CC2)c2cc(C(=O)c3ccc(Br)cc3)oc12.Cl.Cl [PD3, (4-Bromophenyl){7-methyl-4-[(4-(pyridin-2-ylmethyl)piperazin-1-yl]methyl}furo[2,3-c]pyridin-2-yl)methanone dihydrochloride]

- melting point: 129 to 132 °C
Structure (SMILES): Cc1ncc(CN2CCN(CCC#N)CC2)c2cc(C(=O)c3ccc(Br)cc3)oc12 [PD10, 3-{4-[(2-(4-bromobenzoyl)-7-methylfuro[2,3-c]pyridin-4-yl)methyl]piperazin-1-yl}propanenitrile]

From article PMC10096398, “Discovery of Novel EGFR Inhibitor Targeting Wild-Type and Mutant Forms of EGFR: In Silico and In Vitro Study” (Molecules, 2023)
